Experiment [1] deals with T1, Recombinant STAT3 protein (STAT3 (G127-I722)) (Homo sapiens, UniProt P40763).
T1 construct: Recombinant STAT3 protein (STAT3 (G127-I722))
The experiment in a line: STAT3 Fluorescence Polarization (FP) Assay. In kind it is binding. To be noted: probe 5-FAM-GpYLPQTV-NH2 2 nM, 45-minute incubation. The method, boiled down:
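Compounds in serial dilution receive a premix of STAT3 (G127-I722, 25 nM) and fluorescent phosphotyrosine peptide 5-FAM-GpYLPQTV-NH2 (2 nM) at pH 7.4. After 45 min at room temperature, FP is measured and IC50 derived by nonlinear regression.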

Experiment [2] deals with T2, Recombinant STAT6 protein (STAT6 (W123-T658)) (Homo sapiens, UniProt P42226).
T2 construct: Recombinant STAT6 protein (STAT6 (W123-T658))
T2 sequence (P42226 123-658): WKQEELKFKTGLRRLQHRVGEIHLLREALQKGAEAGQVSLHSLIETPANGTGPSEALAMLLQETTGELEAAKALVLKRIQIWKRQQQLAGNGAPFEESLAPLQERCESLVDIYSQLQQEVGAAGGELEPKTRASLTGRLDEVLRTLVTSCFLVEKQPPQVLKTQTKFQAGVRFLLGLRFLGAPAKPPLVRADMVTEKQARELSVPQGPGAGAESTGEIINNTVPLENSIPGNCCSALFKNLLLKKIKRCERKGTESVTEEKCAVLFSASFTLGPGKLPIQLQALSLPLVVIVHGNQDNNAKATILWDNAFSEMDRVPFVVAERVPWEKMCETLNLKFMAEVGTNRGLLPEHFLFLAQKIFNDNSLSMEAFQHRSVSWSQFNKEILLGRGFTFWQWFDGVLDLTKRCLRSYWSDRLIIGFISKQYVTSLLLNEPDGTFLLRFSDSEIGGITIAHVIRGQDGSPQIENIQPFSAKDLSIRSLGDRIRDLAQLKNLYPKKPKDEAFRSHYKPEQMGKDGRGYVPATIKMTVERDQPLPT
The experiment in a line: STAT6 Fluorescence Polarization (FP) Assay. The experiment is classed as binding. Conditions: 45-minute incubation. The method, boiled down:
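STAT6 (W123-T658) at 250 nM was mixed with 2 nM 5-FAM-labeled phosphotyrosine peptide probe in HEPES pH 7.4 buffer with NaCl, EDTA, Tween 20 and DTT, then added to serially diluted compounds at 1% DMSO final. Polarization was read after 45 min at room temperature; IC50 came from nonlinear regression of mP versus log concentration.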
In general terms: In fluorescence polarisation assays a small probe gives low polarisation when free and higher when bound to something large.

The mark [3] stands for this setting: STAT3 (G127-I722) 25 nM, read-out: STAT3 (FP assay IC50 class).
The mark [4] stands for this setting: STAT6 (W123-T658) 250 nM, probe 5-FAM-Ap[…]-NH2 2 nM, read-out: STAT6 (FP assay IC50 class).
Where [5] appears, read: STAT3 25 nM, read-out: STAT3 (FP assay IC50).
Where [6] appears, read: STAT6 250 nM, probe 5-FAM-Ap[…]-NH2 2 nM, read-out: STAT6 (FP assay IC50).

Where two headings read alike, the source gives them in different places.

T1 sequence (P40763 127-722): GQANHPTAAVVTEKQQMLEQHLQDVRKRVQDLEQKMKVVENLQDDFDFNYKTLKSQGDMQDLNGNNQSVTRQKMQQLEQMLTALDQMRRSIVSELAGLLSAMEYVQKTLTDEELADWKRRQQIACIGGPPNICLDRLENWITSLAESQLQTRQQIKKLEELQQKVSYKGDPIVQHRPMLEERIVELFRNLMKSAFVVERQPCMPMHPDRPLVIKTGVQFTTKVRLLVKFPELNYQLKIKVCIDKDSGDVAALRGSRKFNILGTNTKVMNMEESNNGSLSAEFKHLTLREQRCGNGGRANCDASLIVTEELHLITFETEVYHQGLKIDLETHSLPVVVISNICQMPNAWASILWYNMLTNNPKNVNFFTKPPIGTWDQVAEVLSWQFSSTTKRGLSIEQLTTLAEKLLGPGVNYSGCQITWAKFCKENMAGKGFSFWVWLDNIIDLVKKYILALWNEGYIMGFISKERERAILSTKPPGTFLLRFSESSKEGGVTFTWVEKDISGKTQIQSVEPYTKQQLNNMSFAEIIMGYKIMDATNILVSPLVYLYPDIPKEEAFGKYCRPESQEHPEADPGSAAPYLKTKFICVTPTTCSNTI

Regarding `O=C(N[C@H]1CCC[C@H]2CC[C@@H](C(=O)N3CC(c4ccncc4)C3)N2C1=O)c1cc2cc(C(F)P(=O)(O)O)ccc2s1` (stereo partly drawn) [Compound 611, (fluoro(2-(((3S,6S,9aS)-5-oxo-3-(3-(pyridin-4-yl)azetidine-1-carbonyl)octahydro-1H-pyrrolo[1,2-a]azepin-6-yl)carbamoyl)benzo [b]thiophen-5-yl)methyl) phosphonic acid], the IC50 in experiment [1] (setting [3]) is 0.1 to 1 µM; in experiment [2] (setting [4]), 3 to 30 µM.

In the case of `O=C(N[C@H]1CCCC[C@H]2CC[C@@H](C(=O)N[C@H]3CN(C(=O)OC4CC4)C[C@@H]3F)N2C1=O)c1cc2cc(C(F)P(=O)(O)O)ccc2s1` (stereo partly drawn) [Compound 554, ((2-(((3S,6S,10aS)-3-(((3S,4S)-1-(cyclopropoxycarbonyl)-4-fluoropyrrolidin-3-yl)carbamoyl)-5-oxodecahydropyrrolo[1,2-a]azocin-6-yl)carbamoyl)benzo[b]thiophen-5-yl)fluoromethyl)phosphonic acid], the IC50 in experiment [1] (setting [3]) lay in the range of 1 to 10 µM; in experiment [2] (setting [4]) it was 0.3 to 3 µM.

In the case of `Cc1ccncc1C1CN(C(=O)[C@@H]2CC[C@@H]3C[C@@H](C)CC[C@H](NC(=O)c4cc5cc(CP(=O)(O)O)ccc5s4)C(=O)N32)C1` [Compound 655, ((2-(((3S,6S,9S,10aR)-9-methyl-3-(3-(4-methylpyridin-3-yl)azetidine-1-carbonyl)-5-oxodecahydropyrrolo [1,2-a]azocin-6-yl)carbamoyl)benzo [b]thiophen-5-yl)methyl) phosphonic acid], the IC50 in experiment [1] (setting [3]) lay within 0.1 to 1 µM; in experiment [2] (setting [4]), 3 to 30 µM.

`O=C(N[C@@H]1C(=O)N2[C@@H](CCC[C@H]1C1CC1)CC[C@H]2C(=O)N1CC(c2cccnc2)C1)c1cc2cc(C(F)(F)P(=O)(O)O)ccc2s1` [Compound 233, ((2-(((3S,6S,7S,10aS)-7-cyclopropyl-5-oxo-3-(3-(pyridin-3-yl)azetidine-1-carbonyl)decahydropyrrolo[1,2-a]azocin-6-yl)carbamoyl)benzo[b]thiophen-5-yl)difluoromethyl)phosphonic acid]: the figures for the IC50 in experiment [1] (setting [3]) and in experiment [2] (setting [4]) were less than 0.1 µM and 3 to 30 µM, respectively.

Consider `COc1c(C2CN(C(=O)[C@@H]3CC[C@@H]4CCC[C@H](NC(=O)c5cc6cc([C@@H](F)P(=O)(O)O)ccc6s5)C(=O)N43)C2)ccnc1Cl` (single isomer, unassigned) [Compound 698], for which the IC50 in experiment [1] (setting [3]) fell in the range of 0.1 to 1 µM; in experiment [2] (setting [4]) it was 3 to 30 µM.

As for `O=C(N[C@H]1CCC[C@H]2CC[C@@H](C(=O)N3CC(c4cncnc4N4CCOCC4)C3)N2C1=O)c1cc2cc([C@@H](F)P(=O)(O)O)ccc2s1` (single isomer, unassigned) [Compound 861], the figures for the half-inhibitory concentration (IC50) in experiment [1] (setting [3]) and in experiment [2] (setting [4]) were less than 0.1 µM and 3 to 30 µM, respectively.

As to `COc1cc(CCN(C)C(=O)[C@@H]2CC[C@@H]3CCCC[C@H](NC(=O)c4cc5cc(C(F)(F)P(=O)(O)O)ccc5s4)C(=O)N32)ccn1` [Compound 47, (difluoro(2-(((3S,6S,10aS)-3-((2-(2-methoxypyridin-4-yl)ethyl)(methyl)carbamoyl)-5-oxodecahydropyrrolo [1,2-a]azocin-6-yl)carbamoyl)benzo[b]thiophen-5-yl)methyl) phosphonic acid], the IC50 lay within 1 to 10 µM in experiment [1] (setting [5]) and 0.3 to 3 µM in experiment [2] (setting [6]).

For `O=C(N[C@H]1CCCC[C@H]2CC[C@@H](C(=O)N3CC(c4cccnc4)CC34CC4)N2C1=O)c1cc2cc([C@@H](F)P(=O)(O)O)ccc2s1` (stereo in doubt) [Compound 910, ((S)-fluoro(2-(((3S,6S,10aS)-5-oxo-3-((R)-6-(pyridin-3-yl)-4-azaspiro[2.4]heptane-4-carbonyl)decahydropyrrolo[1,2-a]azocin-6-yl)carbamoyl)benzo [b]thiophen-5-yl)methyl) phosphonic acid], the IC50 in experiment [1] (setting [3]) was 1 to 10 µM; in experiment [2] (STAT6 (W123-T658) 250 nM, probe 5-FAM-ApYKPFQDLI-NH2 2 nM, read-out: STAT6 (FP assay IC50 class)), no more than 0.3 µM.

For `N#Cc1cccc(C2CN(C(=O)[C@@H]3CC[C@@H]4CCC[C@H](NC(=O)c5cc6cc(CP(=O)(O)O)ccc6s5)C(=O)N43)C2)n1` [Compound 653, ((2-(((3S,6S,9aS)-3-(3-(6-cyanopyridin-2-yl)azetidine-1-carbonyl)-5-oxooctahydro-1H-pyrrolo[1,2-a]azepin-6-yl)carbamoyl)benzo [b]thiophen-5-yl)methyl) phosphonic acid], the results for the IC50 in experiment [1] (setting [3]) and in experiment [2] (setting [4]) were 0.1 to 1 µM and 3 to 30 µM, respectively.

On to `COC1(c2cnccc2C)CN(C(=O)[C@@H]2CC[C@@H]3CCCC[C@H](NC(=O)c4cc5cc(C(F)(F)P(=O)(O)O)ccc5s4)C(=O)N32)C1` [Compound 501, (difluoro(2-(((3S,6S,10aS)-3-(3-methoxy-3-(4-methylpyridin-3-yl)azetidine-1-carbonyl)-5-oxodecahydropyrrolo[1,2-a]azocin-6-yl)carbamoyl)benzo[b]thiophen-5-yl)methyl)phosphonic acid], for which the IC50 in experiment [1] (setting [3]) lay within 0.1 to 1 µM; in experiment [2] (setting [4]), 3 to 30 µM.

For the compound `N#C[C@@H]1[C@@H](c2ccccc2)CN(C(=O)[C@@H]2CC[C@@H]3CCCC[C@H](NC(=O)c4cc5cc([C@@H](F)P(=O)(O)O)ccc5s4)C(=O)N32)C12CC2` (single isomer, unassigned) [Compound 923], the IC50 in experiment [1] (setting [3]) was 1 to 10 µM; in experiment [2] (setting [4]), no more than 0.3 µM.

On to `N#C[C@@H]1CN(C(=O)[C@@H]2CC[C@@H]3CCCC[C@H](NC(=O)c4cc5cc(C(F)(F)P(=O)(O)O)ccc5s4)C(=O)N32)C[C@H]1c1ccccc1` (single isomer, unassigned) [Compound 22, ((2-(((3S,6S,10aS)-3-((3S,4R or 3R,4S))-3-cyano-4-phenylpyrrolidine-1-carbonyl)-5-oxodecahydropyrrolo [1,2-a]azocin-6-yl)carbamoyl)benzo[b]thiophen-5-yl) difluoromethyl) phosphonic acid], for which the IC50 in experiment [1] (setting [5]) was 1 to 10 µM; in experiment [2] (setting [6]), no more than 0.3 µM.

As for `O=C(N[C@H]1CCC[C@H]2CC[C@@H](C(=O)N3CC(n4cnccc4=O)C3)N2C1=O)c1cc2cc(C(F)P(=O)(O)O)ccc2s1` (stereo partly drawn) [Compound 609, (fluoro(2-(((3S,6S,9aS)-5-oxo-3-(3-(6-oxopyrimidin-1(6H)-yl)azetidine-1-carbonyl)octahydro-1H-pyrrolo[1,2-a]azepin-6-yl)carbamoyl)benzo [b]thiophen-5-yl)methyl) phosphonic acid], the figures for the IC50 in experiment [1] (setting [3]) and in experiment [2] (setting [4]) were 0.1 to 1 µM and 3 to 30 µM, respectively.

Regarding `O=C(N[C@H]1CCCC[C@H]2CC[C@@H](C(=O)N3CC4(CNS(=O)(=O)C4)C3)N2C1=O)c1cc2cc(C(F)(F)P(=O)(O)O)ccc2s1` [Compound 71, ((2-(((3S,6S,10aS)-3-(6,6-dioxido-6-thia-2,7-diazaspiro[3.4]octane-2-carbonyl)-5-oxodecahydropyrrolo [1,2-a]azocin-6-yl)carbamoyl)benzo[b]thiophen-5-yl)difluoromethyl) phosphonic acid], the IC50 is 0.1 to 1 µM in experiment [1] (setting [5]) and 0.3 to 3 µM in experiment [2] (setting [6]).

Regarding `Cc1cncnc1C1CN(C(=O)[C@@H]2CC[C@@H]3CCC[C@H](NC(=O)c4cc5cc(C(F)(F)P(=O)(O)O)ccc5s4)C(=O)N32)C1` [Compound 652, (difluoro(2-(((3S,6S,9aS)-3-(3-(5-methylpyrimidin-4-yl)azetidine-1-carbonyl)-5-oxooctahydro-1H-pyrrolo[1,2-a]azepin-6-yl)carbamoyl)benzo [b]thiophen-5-yl)methyl) phosphonic acid], the IC50 is 0.1 to 1 µM in experiment [1] (setting [3]) and 0.3 to 3 µM in experiment [2] (setting [4]).

For the compound `Cc1nccnc1C1CN(C(=O)[C@@H]2CC[C@@H]3CCC[C@H](NC(=O)c4cc5cc(C(F)(F)P(=O)(O)O)ccc5s4)C(=O)N32)C1` [Compound 648, (difluoro(2-(((3S,6S,9aS)-3-(3-(3-methylpyrazin-2-yl)azetidine-1-carbonyl)-5-oxooctahydro-1H-pyrrolo[1,2-a]azepin-6-yl)carbamoyl)benzo [b]thiophen-5-yl)methyl) phosphonic acid], the IC50 in experiment [1] (setting [3]) is less than 0.1 µM; in experiment [2] (setting [4]), 3 to 30 µM.

Take `O=C(N[C@H]1CCCC[C@H]2CC[C@@H](C(=O)N3CCC(c4cccnc4)C3)N2C1=O)c1ccc2ccc(C(F)(F)P(=O)(O)O)cc2c1` (stereo partly drawn) [Compound 218, (difluoro(7-(((3S,6S,10aS)-5-oxo-3-(3-(pyridin-3-yl)pyrrolidine-1-carbonyl)decahydropyrrolo[1,2-a]azocin-6-yl)carbamoyl)naphthalen-2-yl)methyl)phosphonic acid]: the IC50 is 0.1 to 1 µM in experiment [1] (setting [3]) and no more than 0.3 µM in experiment [2] (setting [4]).

The term IC50 denotes the concentration that inhibits the measured activity by half.

These data come from patent US20250215029A1 (Recludix Pharma, Inc., priority 2022, published 2025).
